In patent US9075281B2, “Colored composition and image display structure” (FUJIFILM CORPORATION, priority 2011, dated 2015):

What was measured:
Format in all cases: physicochemical
[1] = Measurement of dynamic viscosity; settings: 3% by mass solution in n-decane, 20° C.
Method: Here, the dynamic viscosity is a value obtained by measurement at 20° C., using a viscometer (type 500, manufactured by Toki Sangyo Co., Ltd.).
5. Measurement of Dynamic Viscosity
A 3% by mass solution of Exemplary Compound D8-4 in n-decane was prepared, and the viscosity of the dye solution was measured at 20° C. using a viscometer (type 500, manufactured by Toki Sangyo Co., Ltd.).
The dynamic viscosities of the dyes (Exemplary Compounds) employed in Examples were obtained in the same manner, and the results are shown in Table 8.

[2] = Measurement of relative permittivity; settings: dye itself, extrapolated from 1, 1.5 and 2% by mass n-hexane solutions; 20° C., 40% RH, 1 kHz
Method: 4. Measurement of Relative Permittivity
Solutions of Exemplary Compound D8-4 in n-hexane having concentrations of 1% by mass, 1.5% by mass and 2% by mass, respectively, were prepared, and individually injected into glass cells each having transparent indium-tin-oxide electrodes and a cell gap of 10 μm. The electrical capacities of the resultant cells were measured at 20° C. and 40% RH using a type 2353 LCR meter (manufactured by NF Corporation) at a measurement frequency of 1 kHz. The electrical capacity of n-hexane was also measured as a control sample.
The relative permittivities of the dyes (Exemplary Compounds) employed in the Examples were obtained in the same manner, and the results are shown in Table 7.

[3] = Solubility of the dye in n-hexane; settings: in n-hexane at 25° C. and 0.1 MPa
Method: 3. Solubility in n-Hexane
The solubility of the dye in a solvent, n-hexane, was determined as follows.
The dye to be measured was dissolved in n-hexane heated at 50° C., to prepare a saturated solution. The saturated solution obtained was then left in an environment of 25° C. and 0.1 MPa for 1 hour. The precipitated dye was filtered, and the precipitation amount was measured, from which the solubility (% by mass) of the dye in n-hexane at 25° C. and 0.1 MPa was calculated.

[4] = Absorption maximum wavelength, absorbance and absorption coefficient of the colored composition; settings: n-hexane solution, 3% by mass or maximum concentration at which the dye completely dissolves; for Absorption Coefficient (ε): calculated by Lambert-Beer law
Method: 2. Absorption Maximum Wavelength, Absorbance and Absorption Coefficient of the Colored Composition
The absorption maximum wavelength (λmax) and the absorbance (abs) of the colored composition were measured using a visible-light spectrophotometer (trade name: UV-1800PC, manufactured by Shimadzu Corporation). The absorption coefficient (∈) was calculated based on the Lambert-Beer law.

[5] = Color of colored composition, visually evaluated; settings: n-hexane solution, visual evaluation
Excerpt: 1. Color of Colored Composition
The color of the colored composition was visually evaluated.

Dynamic Viscosity (mPa · s) [1] [mPa·s] | Relative Permittivity [2] | Solubility (% by Mass) [3] | Absorption Maximum Wavelength (λ max) [4] [nm] | Color of Solution [5] | Absorption Coefficient (ε) [4] | Structure (SMILES)
1.3 | 4.2 | – | – | – | – | CCCCC(CC)CNC(=O)C1=CC(=Nc2ccc(N(CC(CC)CCCC)CC(CC)CCCC)cc2C)c2ccccc2C1=O (stereo not shown) [D10-1]
1.3 | 6.5 | 3.6 % by mass | 640 | blue | – | CCCCC(CC)CNc1ccc(NCC(CC)CCCC)c2c1C(=O)c1ccccc1C2=O (stereo not shown) [D4-2]
1.2 | 8.0 | 3.0 % by mass | 510 | orange | 4.30 × 10^4 | CCCCCCN(CCCCCC)c1ccc(C=C2C(=O)N(CC(CC)CCCC)N=C2C)c(C)c1 (stereo not shown) [D2-5]
– | – | 0.1 % by mass | 642 | blue | – | CCCCCCNc1ccc(NCCCCCC)c2c1C(=O)c1ccccc1C2=O [D4-101, reference compound]
– | 5.6 | – | – | – | – | CCCCC(CC)CN(CC(CC)CCCC)c1ccc(/N=C2\C(C#N)=C(C(=O)OC3C(C(C)(C)C)CC(C)CC3C(C)(C)C)c3nc(C(C)(C)C)nn32)c(C(=O)N(CCCC)CCCC)c1 (stereo not shown) [D9-4]
1.2 | 6.5 | ≥ 10 or % by mass | 600 | blue | – | CCCCC(CC)CN(CC(CC)CCCC)c1ccc(/N=C2\C(C#N)=C(C(=O)OC3C(C(C)(C)C)CC(C)CC3C(C)(C)C)c3nc(C(C)(C)C)nn32)cc1 (stereo not shown) [D9-5]
1.3 | 7.8 | ≥ 10 or % by mass | 562 | red | – | CCCCCC(CC)c1nc2n(n1)N=C(C(C)CC)/C2=N/c1ccc(N(CC(CC)CCCC)CC(CC)CCCC)cc1C (stereo not shown) [D8-4]
– | – | 2.2 % by mass | 616 | blue | – | CCCCCCCCN1c2cc(C)c(/N=C3\C(C#N)=C(C(=O)OC4C(C(C)(C)C)CC(C)CC4C(C)(C)C)c4nc(C(C)CCCC)nn43)cc2C(C)CC1(C)C (stereo not shown) [D9-2]
1.2 | 9.5 | 6.2 % by mass | 528 | – | – | CCCCC(CC)CN(CC(CC)CCCC)c1ccc(C=C2C(=O)N(C(C)CC)C(=O)C(C#N)=C2C(C)CC)c(C)c1 (stereo not shown) [D3-1]
– | – | ≦0.01 % by mass | – | – | – | CCCCCCOc1cc(N(CCCC)CCCC)ccc1C=C1C(=O)N(CCCC)C(=O)C(C#N)=C1C [D3-101, reference compound]
1.2 | 8.8 | – | – | – | – | CCCCC(CC)CN(CC(CC)CCCC)c1ccc(C=C2C(=O)ON=C2C(C)CC)c(C)c1 (stereo not shown) [D1-1]
– | – | ≥ 10 or % by mass | 542 | red | – | CCCCCCCCN1c2cc(C)c(/N=C3/C(C)=Nn4nc(C(C)CNC(=O)C(CCCCCC)Oc5ccc(C(C)(C)CC)cc5C(C)(C)CC)nc43)cc2C(C)CC1(C)C (stereo not shown) [D8-2]
– | – | 0.8 % by mass | 541 | red | – | CCCCCCCCN1c2cc(C)c(/N=C3/C(C)=Nn4nc(C(C)(C)C)nc43)cc2C(C)CC1(C)C (stereo not shown) [D8-101, reference compound]
1.2 | 6.2 | ≥ 10 or % by mass | 650 | blue | – | CCCCC(CC)CNC(=O)c1cc(N(CC(CC)CCCC)CC(CC)CCCC)ccc1/N=C1\C(C#N)=C(C(=O)OC2C(C(C)(C)C)CC(C)CC2C(C)(C)C)c2nc(C(C)(C)C)nn21 (stereo not shown) [D9-6]
– | – | 0.1 % by mass | 500 | orange | – | CCCCCCOc1cc(N(CC)CC)ccc1N=C1C(=O)N(CCCC)N=C1C [D6-101, reference compound]
– | – | ≥ 10 or % by mass | 500 | – | – | CCCCC(CC)CC1=NN(CC(CC)CCCC)C(=O)C1=Nc1ccc(N(CC)CC)cc1OCC(C)(CC(C)CC(C)C)CC(C)CC(C)(C)C (stereo not shown) [D6-2]
1.3 | 8.5 | 8.5 % by mass | 508 | orange | 4.40 × 10^4 | CCCCC(CC)CN(CC(CC)CCCC)c1ccc(C=C2C(=O)N(C(C)CC)N=C2C(C)CC)c(C)c1 (stereo not shown) [D2-1]
– | – | 0.1 % by mass | 510 | orange | 4.25 × 10^4 | CCCCC1=NN(CCCC)C(=O)C1=Cc1ccc(N(CCCC)CCCC)cc1C [D2-101, reference compound]
– | – | 9.8 % by mass | 505 | – | 4.60 × 10^4 | CCCCC(CC)CC1=NN(CC(CC)CCCC)C(=O)C1=Cc1ccc(N(CC)CC)cc1OCC(CC(C)CC(C)CC(C)C)CC(C)CC(C)(C)C (stereo not shown) [D2-2]
1.3 | 7.7 | – | – | – | – | CCCCC(CC)CNC(=O)c1cc(N(CC(CC)CCCC)CC(CC)CCCC)ccc1/N=C1/C(CC)=Nn2nc(C(C)C)nc21 (stereo not shown) [D8-9]
– | – | ≥ 10 or % by mass | 525 | – | – | CCCCC(CC)CN1C(=O)C(=Cc2ccc(N(CCCC)CCCC)cc2OCC(CC(C)CC(C)CC(C)C)CC(C)CC(C)(C)C)C(C)=C(C#N)C1=O (stereo not shown) [D3-2]
– | 7.6 | – | – | – | – | CCCCC(CC)CN(CC(CC)CCCC)c1ccc(/N=C2\C(C#N)=C(C(=O)OC3C(C(C)(C)C)CC(C)CC3C(C)(C)C)c3nc(C(CC)CCCC)nn32)c(C(C)CC)c1 (stereo not shown) [D9-3]
– | – | ≤ 0.05 or % by mass | – | – | – | CCN(CC)c1ccc(/N=C2\C(C#N)=C(C(=O)OC)c3nc(-c4ccc(C(C)(C)C)cc4)nn32)c(C)c1 [D9-101, reference compound]
1.2 | 7.5 | ≥ 10 or % by mass | 505 | – | – | CCCCC(CC)COc1cc(N(CC(CC)CCCC)CC(CC)CCCC)ccc1N=C1C(=O)N(CC(CC)CCCC)N=C1C (stereo not shown) [D6-1]
